Laboratory results reported in the supplement of paper PMC10307832.

What was measured:
Experiment in all cases: relative viability (nuclei count vs DMSO), 5 days (fraction); higher = more cells survive
NCI-H2023 = test system: NCI-H2023
Summary of the method: (§1)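 A single step with final 0.05% Triton X-100, 1% formaldehyde and 1 ug/ml Hoechst fixed the cells and stained nuclei 5 days after treatment. Lung cancer cell lines in 1536-well plates had been treated by pin tool the day after seeding with one drug alone or a fixed anchor-drug dose plus five library-drug doses (not always all listed) in √10 steps, and nuclei were counted on 4× images. Relative viability is the ratio of nuclei in treated wells to nuclei in vehicle wells, taken as the median of duplicate plates.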

NCI-H2405 = test system: NCI-H2405
Summary of the method: as §1

NCI-H1792 = test system: NCI-H1792
Summary of the method: as §1

HARA = test system: HARA
Summary of the method: as §1

SK-LU-1 = test system: SK-LU-1
Summary of the method: as §1

NCI-H2085 = test system: NCI-H2085
Summary of the method: as §1

NCI-H727 = test system: NCI-H727
Summary of the method: as §1

NCI-H1437 = test system: NCI-H1437
Summary of the method: as §1

NCI-H661 = test system: NCI-H661
Summary of the method: as §1

COR-L23 = test system: COR-L23
Summary of the method: as §1

COR-L 105 = test system: COR-L 105
Summary of the method: as §1

UMC-11 = test system: UMC-11
Summary of the method: as §1

NCI-H1944 = test system: NCI-H1944
Summary of the method: as §1

NCI-H358 = test system: NCI-H358
Summary of the method: as §1

EPLC-272H = test system: EPLC-272H
Summary of the method: as §1

HCC-366 = test system: HCC-366
Summary of the method: as §1

HCC-15 = test system: HCC-15
Summary of the method: as §1

NCI-H1975 = test system: NCI-H1975
Summary of the method: as §1

NCI-H1395 = test system: NCI-H1395
Summary of the method: as §1

HCC-78 = test system: HCC-78
Summary of the method: as §1

HCC-44 = test system: HCC-44
Summary of the method: as §1

HCC-827 = test system: HCC-827
Summary of the method: as §1

Cc1cnc(-c2cnc(NCCNc3ccc(C#N)cn3)nc2-c2ccc(Cl)cc2Cl)[nH]1 + CS(=O)(=O)CCNCc1ccc(-c2ccc3ncnc(Nc4ccc(OCc5cccc(F)c5)c(Cl)c4)c3c2)o1 [Lapatinib] (partner 2 µM)
relative viability (NCI-H2023; first compound 0.08 µM): 1.23 | relative viability (NCI-H2023; first compound 0.253 µM): 0.431 | relative viability (NCI-H2023; first compound 0.8 µM): 0.827 | relative viability (NCI-H2023; first compound 2.53 µM): 0.913 | relative viability (NCI-H2405; first compound 0.08 µM): 1.11 | relative viability (NCI-H2405; first compound 0.253 µM): 1.01 | relative viability (NCI-H2405; first compound 0.8 µM): 0.741 | relative viability (NCI-H2405; first compound 2.53 µM): 0.523 | relative viability (NCI-H1792; first compound 0.08 µM): 0.927 | relative viability (NCI-H1792; first compound 0.253 µM): 0.756 | relative viability (NCI-H1792; first compound 0.8 µM): 0.862 | relative viability (NCI-H1792; first compound 2.53 µM): 0.866 | relative viability (HARA; first compound 0.08 µM): 1.03 | relative viability (HARA; first compound 0.253 µM): 0.598 | relative viability (HARA; first compound 0.8 µM): 0.799 | relative viability (HARA; first compound 2.53 µM): 0.607 | relative viability (SK-LU-1; first compound 0.08 µM): 0.87 | relative viability (SK-LU-1; first compound 0.253 µM): 0.96 | relative viability (SK-LU-1; first compound 0.8 µM): 0.999 | relative viability (SK-LU-1; first compound 2.53 µM): 1.11 | relative viability (NCI-H2085; first compound 0.08 µM): 0.837 | relative viability (NCI-H2085; first compound 0.253 µM): 0.8 | relative viability (NCI-H2085; first compound 0.8 µM): 0.786 | relative viability (NCI-H2085; first compound 2.53 µM): 0.848 | relative viability (NCI-H727; first compound 0.08 µM): 0.822 | relative viability (NCI-H727; first compound 0.253 µM): 0.882 | relative viability (NCI-H727; first compound 0.8 µM): 0.765 | relative viability (NCI-H727; first compound 2.53 µM): 0.782 | relative viability (NCI-H1437; first compound 0.08 µM): 0.848 | relative viability (NCI-H1437; first compound 0.253 µM): 0.715 | relative viability (NCI-H1437; first compound 0.8 µM): 0.805 | relative viability (NCI-H1437; first compound 2.53 µM): 0.793 | relative viability (NCI-H661; first compound 0.08 µM): 0.523 | relative viability (NCI-H661; first compound 0.253 µM): 0.452 | relative viability (NCI-H661; first compound 0.8 µM): 0.449 | relative viability (NCI-H661; first compound 2.53 µM): 0.54 | relative viability (COR-L23; first compound 0.08 µM): 0.924 | relative viability (COR-L23; first compound 0.253 µM): 0.856 | relative viability (COR-L23; first compound 0.8 µM): 0.862 | relative viability (COR-L23; first compound 2.53 µM): 0.905 | relative viability (COR-L 105; first compound 0.08 µM): 0.397 | relative viability (COR-L 105; first compound 0.253 µM): 0.348 | relative viability (COR-L 105; first compound 0.8 µM): 0.318 | relative viability (COR-L 105; first compound 2.53 µM): 0.403 | relative viability (UMC-11; first compound 0.08 µM): 1.22 | relative viability (UMC-11; first compound 0.253 µM): 0.7 | relative viability (UMC-11; first compound 0.8 µM): 0.697 | relative viability (UMC-11; first compound 2.53 µM): 1.09 | relative viability (NCI-H1944; first compound 0.08 µM): 0.858 | relative viability (NCI-H1944; first compound 0.8 µM): 0.776 | relative viability (NCI-H1944; first compound 2.53 µM): 0.872 | relative viability (NCI-H358; first compound 0.08 µM): 0.43 | relative viability (NCI-H358; first compound 0.253 µM): 0.49 | relative viability (NCI-H358; first compound 0.8 µM): 0.412 | relative viability (NCI-H358; first compound 2.53 µM): 0.401 | relative viability (EPLC-272H; first compound 0.08 µM): 1.08 | relative viability (EPLC-272H; first compound 0.253 µM): 0.88 | relative viability (EPLC-272H; first compound 0.8 µM): 0.599 | relative viability (EPLC-272H; first compound 2.53 µM): 0.946 | relative viability (HCC-366; first compound 0.08 µM): 0.989 | relative viability (HCC-366; first compound 0.253 µM): 0.951 | relative viability (HCC-366; first compound 0.8 µM): 1.08 | relative viability (HCC-366; first compound 2.53 µM): 0.935 | relative viability (HCC-15; first compound 0.08 µM): 0.813 | relative viability (HCC-15; first compound 0.253 µM): 0.577 | relative viability (HCC-15; first compound 0.8 µM): 0.903 | relative viability (HCC-15; first compound 2.53 µM): 0.843 | relative viability (NCI-H1975; first compound 0.08 µM): 1.01 | relative viability (NCI-H1975; first compound 0.253 µM): 0.9 | relative viability (NCI-H1975; first compound 0.8 µM): 0.694 | relative viability (NCI-H1975; first compound 2.53 µM): 0.558 | relative viability (NCI-H1395; first compound 0.08 µM): 1.04 | relative viability (NCI-H1395; first compound 0.253 µM): 0.776 | relative viability (NCI-H1395; first compound 0.8 µM): 1.07 | relative viability (NCI-H1395; first compound 2.53 µM): 0.94 | relative viability (HCC-78; first compound 0.08 µM): 0.449 | relative viability (HCC-78; first compound 0.253 µM): 0.528 | relative viability (HCC-78; first compound 0.8 µM): 1.12 | relative viability (HCC-78; first compound 2.53 µM): 0.546 | relative viability (HCC-44; first compound 0.08 µM): 0.99 | relative viability (HCC-44; first compound 0.253 µM): 0.858 | relative viability (HCC-44; first compound 0.8 µM): 0.989 | relative viability (HCC-44; first compound 2.53 µM): 1.06 | relative viability (HCC-827; first compound 0.08 µM): 0.189 | relative viability (HCC-827; first compound 0.8 µM): 0.213 | relative viability (HCC-827; first compound 2.53 µM): 0.179
